According to patent US10301630B2, “Methods and compositions for unsilencing imprinted genes” (The University of North Carolina at Chapel Hill, priority 2010, dated 2019):
Where “and” joins values, the source holds several entries; their conditions need not be identical. Identical values can stand only once. Like-named read-outs stand apart in the source and are kept apart here.

How the values were obtained:
[1] = test system: paternal Ube3a-YFP allele; test: High-content imaging of paternal Ube3a-YFP unsilencing in primary cortical neurons; type: cell-based, mouse; conditions: for EC50 / EC20 / maximal fold induction: Mus musculus; for EC20: Table 3, unsilencing the paternal allele of Ube3a-YFP in cultured neurons, 1 nM to 30 μM, read-out: Potency EC20; for unsilencing of paternal Ube3a-YFP in dose-response experiments: cultured Ube3a m+/pYFP neurons
Experimental: In all screening assays, primary cortical neurons from Ube3a-YFP mice are isolated from embryonic day 15.5 animals, and the genotype of animals is determined to identify mice that encode the Ube3a-YFP transgene on the paternal allele. Freshly isolated cortical neurons are seeded into 384 well plates and cultured for 7 days. At day in vitro seven, screening is performed using multiple chemical libraries and compound concentration of 10 μM in 0.2% DMSO vehicle. After 72 h of drug exposure (run in quadruplicate wells), neurons are fixed with 4% para formaldehyde and processed for immunofluorescence using an anti-GFP-Alexa 488 conjugated antibody to enhance the signal of Ube3a-YFP in neurons. For image analyses, individual wells of immunofluorescence-processed plates are imaged fro DAPI and GFP fluorescence using the BD-Pathway 855 high-content imaging microscope. Ube3a-YFP fluorescence intensities in individual neurons are determined in drug-treated wells and normalized to 0.2% DMSO-treated (i.e., vehicle control) wells using custom written macros and algorithms using NIH Image J and Arrayscan Cell Profiler software programs. These image analyses enable masking of nuclei in individual neurons and determination of Ube3a-YFP fluorescence intensity in the nuclei of individual neurons.
For these studies, DIV 7 primary neurons encoding paternal Ube3a-YFP are dose treated with hit compounds across seven orders of magnitude in full and half log molar concentrations (3 pM to 30 μM). Ube3a-YFP fluorescence intensities in living neurons are determined again by high-content imaging microscopy after 72 h treatments. The dose response results are analyzed by least squares sigmoidal dose-response curve fitting models using Graphpad Prism 5.0 (Graphpad Software, Inc.). The calculated EC50 values (potencies) and Y value top plateau (estimated efficacies or Emax) enable comparative analyses of the relative potency and efficacy of the identified compounds.
Primary cortical neurons were isolated from E13.5-16.5 Ube3a-YFP mice. Screening was performed in quadruplicate at DIV7 using multiple chemical libraries and a compound concentration of 10 μM in 0.2% DMSO vehicle. After 72 h of drug exposure, neurons were fixed with 4% paraformaldehyde in PBS for 35 min, permeabilized with 0.3% Triton X-100 in PBS on ice for 30 min, and blocked by 5% goat serum with 0.1% Triton X-100 in PBS at room temperature for 1 hr. Cells were incubated with a rabbit polyclonal antibody to GFP (1:1000, Novus Biologicals, NB600-308) at room temperature for 1 hr and then incubated with Alexa Fluor 488 goat antibody to rabbit IgG (1:200, Invitrogen, A11008) and DAPI (1:10,000, Invitrogen, D-1306) at room temperature for 30 min. Individual wells of immunofluorescence-processed plates were imaged for DAPI or Alexa 488 fluorescence using the BD Pathway 855 high-content imaging microscope with a 488 excitation/515 long pass filter. Antibody-enhanced UBE3A-YFP fluorescence intensities were determined from individual neurons in drug-treated wells and normalized to neurons in wells treated with 0.2% DMSO (vehicle control). Analyses were performed with custom macros and algorithms using NIH Image J and Arrayscan Cell Profiler software programs (Thermo Scientific/Cellomics). These image analyses enabled masking of nuclei in individual neurons and determination of UBE3A-YFP fluorescence intensities in the nuclei of individual neurons (FIG. 16).
DIV7 primary neurons from Ube3a^m+/pYFP mice were dose-treated for 72 h with topoisomerase I and II inhibitors in ten point dose-responses in full and half log molar concentrations (1 nM to 30 μM). Neurons were fixed, processed for immunofluorescence, and UBE3A-YFP fluorescence intensities were again determined by high-content imaging microscopy.

[2] = test system: paternal Ube3a-YFP allele in spinal neurons; test: Intrathecal delivery, paternal Ube3a-YFP in spinal cord; type: in vivo, mouse; conditions: for unsilencing of paternal Ube3a-YFP after intrathecal injection: i.t. 5 μl, irinotecan 1000 nmol/day for 5 days, topotecan 200 nmol/day for 6 days
Experimental: A soft cloth is placed over the head and upper body of the animal to keep him calm. The experimenter grasps the pelvic girdle of mouse with his thumb and forefinger. Next, the experimenter traces the spinal column of the mouse with a needle. The disposable 30 gauge ½ inch needle is connected to a 50 ul Luer-hub Hamilton syringe. As long as the experimenter senses the bones of the spinal column, the angle of syringe is lowered at 45 degree to the horizontal. The experimenter inserts the needle 1 mm further to the spinal column. Following the 5 ul injection, the syringe is rotated slightly and removed. […] They are 100, 500 and 1000 nmole. Paternal Ube3a-YFP (+/Ey) mice are used throughout these experiments.
For immunocytochemistry in spinal cord, lumbosacral spinal cord (approximately L1 to S2 and inclusive of the area corresponding to intrathecal injection site) was removed from each mouse and immersion-fixed for 8 h in cold 4% paraformaldehyde/0.1M phosphate buffer (pH 7.4). After a period of cryoprotection in 30% sucrose in 0.1M phosphate buffer, each spinal cord was sectioned on a cryostat at 40 μm. Sections to be stained immediately were collected in PBS; sections to be saved for future study were placed in a PBS/ethylene glycol/glycerol solution and stored at −20° C. Every fourth section was incubated overnight in a mixture containing a chicken IgY to GFP (1:750; Ayes Labs, GFP-1020) and a mouse IgG1 to NeuN (1:250; Millipore, MAB377) and treated the following day with a cocktail containing goat anti-chicken IgY-Alexa 488 (1:200; Invitrogen, A-11039), goat anti-mouse IgG1-Alexa 568 (1:200; Invitrogen, A-21124), and DRAQ5 (1:10,000; Axxora, BOS-889-001). Immunostained sections were mounted from PBS onto SuperFrostPlus Slides (Fisher), which were then air-dried briefly, rehydrated with PBS, and coverslipped with FluoroGel (Electron Microscopy Sciences). For quantification studies, sections were imaged using a Nikon Eclipse 80i with Surveyor mosaic imaging software. For qualitative assessment, sections were imaged as maximal projections on a Zeiss LSM 510.
For cell counting in spinal cord, 14 to 18 sections per mouse in segments corresponding to the injection site were analyzed. Slices were imaged using a Nikon Eclipse 80i microscope equipped with a QimagingRetigaExi high-speed CCD camera system and Surveyor mosaic imaging software using a 10× objective. For qualitative purposes, selected sections were also imaged on a Zeiss LSM 510 confocal microscope. Cells were counted manually by individuals blind to the experimental groups from raw (unprocessed) images using ImageJ and Cellprofiler^35 software.
YFP intensity levels from confocal XYZ image stacks were measured using a semi-automated macro with ImageJ. Individual YFP-positive cells were selected by eye, the criteria being the Z plane having the largest area for each cell. Cell regions were defined by intensity thresholding or manual tracing and the average YFP intensity and percent saturation were calculated for each cell.
Following the injection, the syringe is rotated slightly and removed.

[3] = Cortical neurone, Table 1, unsilencing paternal Ube3a-YFP, cortical neurons, 72 h, read-out: EC50
[4] = Primary cortical neuron, concentration-response curves, 72 hr, n=4, mean±SEM, read-out: EC50 for unsilencing paternal Ube3a-YFP (FIG. 7)

| Structure (SMILES) | unsilencing of paternal Ube3a-YFP in the primary screen ([1]; 10 μM for 72 hours, Ube3a m+/pYFP neurons) | EC50 [1, 3] | EC20 ([1]; Neuron, 72 h) | EC50 [1, 4] | unsilencing of paternal Ube3a-YFP in dose-response experiments ([1]; 72 h) | unsilencing of paternal Ube3a-YFP after intrathecal injection [2] | maximal fold induction ([1]; Cortical neurone, 72 h, read-out: Efficacy Emax (fold over control)) | maximal fold induction ([1]; Neuron, 72 h, read-out: Efficacy Emax (fold over vehicle)) | relative potency versus irinotecan (FIG. 7) ([1]; unsilencing paternal Ube3a-YFP) | relative potency versus irinotecan (Example 16) ([1]; upregulation of paternal UBE3A-YFP in cultured neurons) | number of paternal UBE3A-YFP-positive cells in lumbar spinal cord ([2]; 50 nmol/5 μL i.t. once daily, 10 of 14 days) | expression level of unsilenced paternal UBE3A-YFP versus maternal controls ([2]; i.t. 50 nmol/day for 10 of 14 days) | percentage of UBE3A-YFP+ cells that were NeuN+ ([2]; i.t. 50 nmol/day for 10 of 14 days, paternal Ube3a-YFP mice) | time unsilencing of Ube3a-YFP was maintained after cessation of treatment ([2]; i.t. 50 nmol/day for 10 of 14 days, spinal neurons) | persistence of unsilencing 14 days after cessation ([2]; i.t. 100 nmol/day on 10 of 14 days, 14 days washout) | effectiveness at unsilencing in spinal cord compared with irinotecan ([2]; i.t., FIG. 8 Panels B and C) |
| --- | --- | --- | --- | --- | --- | --- | --- | --- | --- | --- | --- | --- | --- | --- | --- | --- |
| CCc1c2c(nc3ccc(OC(=O)N4CCC(N5CCCCC5)CC4)cc13)-c1cc3c(c(=O)n1C2)COC(=O)[C@]3(O)CC [Irinotecan] | upregulated UBE3A-YFP fluorescence | 994 ± 10 nM | 994 ± 13 nM | 996 ± 10 nM | upregulate paternal UBE3A-YFP in a dose- and time-dependent manner | unsilenced the paternal Ube3a-YFP allele in spinal neurons and in DRG neurons | – | – | – | – | – | – | – | – | – | – |
| CC[C@@]1(O)C(=O)OCc2c1cc1n(c2=O)Cc2cc3c(CN(C)C)c(O)ccc3nc2-1 [Topotecan] | – | 54 ± 1.2 nM | 54 ± 3.4 nM | 55 ± 1.2 nM | upregulate paternal UBE3A-YFP in a dose- and time-dependent manner | unsilenced the paternal Ube3a-YFP allele in spinal neurons and in DRG neurons | 2.25 ± 0.07 | 2.25 ± 0.05 | ~20 times | 20 × | significantly increased the number of paternal UBE3A-YFP-positive cells | expressed at levels comparable to maternal UBE3A-YFP controls | > 93% and 93.25% | at least 12 weeks | unsilencing of paternal Ube3a persists | even more effective at unsilencing paternal Ube3a in spinal cord |
